Results from patent publication US9604975B2, “Indolyl-pyridone derivatives having checkpoint kinase 1 inhibitory activity” (Vernalis (R&D) Ltd., priority 2009, dated 2017).

Target: T1, CHK1 (Homo sapiens, UniProt O14757)
T1 construct: His; purchased Invitrogen
T1 sequence (O14757 1-476): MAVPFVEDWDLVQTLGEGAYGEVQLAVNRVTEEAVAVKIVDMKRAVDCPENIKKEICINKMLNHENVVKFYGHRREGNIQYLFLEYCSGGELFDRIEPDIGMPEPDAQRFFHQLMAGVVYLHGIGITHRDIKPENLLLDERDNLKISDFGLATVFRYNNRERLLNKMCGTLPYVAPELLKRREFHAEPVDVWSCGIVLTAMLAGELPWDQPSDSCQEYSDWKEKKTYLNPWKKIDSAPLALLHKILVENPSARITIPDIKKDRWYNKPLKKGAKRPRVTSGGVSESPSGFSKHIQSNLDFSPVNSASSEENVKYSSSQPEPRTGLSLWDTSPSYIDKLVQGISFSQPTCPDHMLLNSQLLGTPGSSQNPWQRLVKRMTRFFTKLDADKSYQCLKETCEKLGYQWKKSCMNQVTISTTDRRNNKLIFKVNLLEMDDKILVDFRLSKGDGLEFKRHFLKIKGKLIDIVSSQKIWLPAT
Assay: CHK1 Enzyme Assay (phosphorylation of Chktide peptide, 33P-ATP filter assay)
Assay type: biochemical
Conditions: 12.5 nM His-CHK1, 0.01 mM ATP, 40 minutes at 30° C.; read-out: CHK1 Enzyme Activity (IC50 range)
Description: Assays for the CHK1 kinase activity were carried out by monitoring the phosphorylation of a synthetic peptide Chktide with the amino acid sequence, […]. The assay mixture containing the inhibitor and CHK1 enzyme was mixed together in a microtiter plate in a final volume of 50 μl and incubated for 40 minutes at 30° C.
The assay mixture contained 0.01 mM unlabeled ATP, 0.5 μCi ^33P-γ-ATP, 14.8 μM Chktide, 0.1 mg/mL BSA, 50 mM Hepes-NaOH pH 7.5 and 12.5 nM His-CHK1 (Invitrogen) enzyme. The reaction was stopped by adding 50 μL of 50 mM phosphoric acid. 90 μL of the mixture was transferred to a pre-wetted 96-well multi-screen MAPHNOB filtration plate (Millipore) and filtered on a vacuum manifold. The filter plate was washed with 3 successive additions of 200 μl 50 mM phosphoric acid and then with 100 μL methanol. The filtration plate was dried for 10 min at 65° C., scintillant added and phosphorylated peptide quantified in a scintillation counter (Trilux, PerkinElmer).

| Structure (SMILES) | IC50 [nM] |
| --- | --- |
| Cc1cccc(Cn2cc(C(=O)Nc3c[nH]c(=O)c(-c4cc5ccccc5[nH]4)c3)cn2)c1 [Example 26, 1-(3-Methyl-benzyl)-1H-pyrazole-4-carboxylic acid [5-(1H-indol-2-yl)-6-oxo-1,6-dihydro-pyridin-3-yl]-amide] | < 100 |
| O=C(Nc1c[nH]c(=O)c(-c2cc3ccccc3[nH]2)c1)c1cnn(Cc2cccc(Cl)c2)c1 [Example 27, 1-(3-Chloro-benzyl)-1H-pyrazole-4-carboxylic acid [5-(1H-indol-2-yl)-6-oxo-1,6-dihydro-pyridin-3-yl]-amide] | < 100 |
| O=C(Nc1c[nH]c(=O)c(-c2cc3ccccc3[nH]2)c1)c1cnn(Cc2ccc(Cl)cc2)c1 [Example 28, 1-(4-Chloro-benzyl)-1H-pyrazole-4-carboxylic acid [5-(1H-indol-2-yl)-6-oxo-1,6-dihydro-pyridin-3-yl]-amide] | < 100 |
| Cc1ccc(Cn2cc(C(=O)Nc3c[nH]c(=O)c(-c4cc5ccccc5[nH]4)c3)cn2)cc1 [Example 29, 1-(4-Methyl-benzyl)-1H-pyrazole-4-carboxylic acid [5-(1H-indol-2-yl)-6-oxo-1,6-dihydro-pyridin-3-yl]-amide] | < 100 |
| Cc1[nH]c(=O)c(-c2cc3ccccc3[nH]2)cc1NC(=O)c1cnn(Cc2cccc(F)c2)c1 [Example 30, 1-(3-Fluoro-benzyl)-1H-pyrazole-4-carboxylic acid [5-(1H-indol-2-yl)-2-methyl-6-oxo-1,6-dihydro-pyridin-3-yl]-amide] | 100 to 500 |
| Cc1[nH]c(=O)c(-c2cc3ccccc3[nH]2)cc1NC(=O)c1cnn(Cc2ccccc2)c1 [Example 31, 1-Benzyl-1H-pyrazole-4-carboxylic acid [5-(1H-indol-2-yl)-2-methyl-6-oxo-1,6-dihydro-pyridin-3-yl]-amide] | < 100 |
| Cc1[nH]c(=O)c(-c2cc3ccccc3[nH]2)cc1NC(=O)c1cnn(Cc2ccc(F)cc2)c1 [Example 32, 1-(4-Fluoro-benzyl)-1H-pyrazole-4-carboxylic acid [5-(1H-indol-2-yl)-2-methyl-6-oxo-1,6-dihydro-pyridin-3-yl]-amide] | 100 to 500 |
| Cc1[nH]c(=O)c(-c2cc3ccccc3[nH]2)cc1NC(=O)c1cnn(Cc2ccc(F)c(F)c2)c1 [Example 33, 1-(3,4-Difluoro-benzyl)-1H-pyrazole-4-carboxylic acid [5-(1H-indol-2-yl)-2-methyl-6-oxo-1,6-dihydro-pyridin-3-yl]-amide] | 100 to 500 |
| O=C(Nc1cnn(CC2CCCCC2)c1)c1c[nH]c(=O)c(-c2cc3ccccc3[nH]2)c1 [Example 34, 5-(1H-Indol-2-yl)-6-oxo-1,6-dihydro-pyridine-3-carboxylic acid (1-cyclohexylmethyl-1H-pyrazol-4-yl)-amide] | 500 to 1500 |
| O=C(Nc1cnn(Cc2cccnc2)c1)c1c[nH]c(=O)c(-c2cc3ccccc3[nH]2)c1 [Example 35, 5-(1H-Indol-2-yl)-6-oxo-1,6-dihydro-pyridine-3-carboxylic acid (1-pyridin-3-ylmethyl-1H-pyrazol-4-yl)-amide] | < 100 |
| O=C(Nc1cnn(Cc2ccncc2)c1)c1c[nH]c(=O)c(-c2cc3ccccc3[nH]2)c1 [Example 36, 5-(1H-Indol-2-yl)-6-oxo-1,6-dihydro-pyridine-3-carboxylic acid (1-pyridin-4-ylmethyl-1H-pyrazol-4-yl)-amide] | 100 to 500 |
| Cc1ccc(Cn2cc(C(=O)Nc3c[nH]c(=O)c(-c4cc5cc(CN6CCC(F)CC6)ccc5[nH]4)c3)cn2)cc1 [Example 37, 1-(4-Methyl-benzyl)-1H-pyrazole-4-carboxylic acid {5-[5-(4-fluoro-piperidin-1-ylmethyl)-1H-indol-2-yl]-6-oxo-1,6-dihydro-pyridin-3-yl}-amide] | < 100 |
| Cc1ccc(Cn2cc(C(=O)Nc3c[nH]c(=O)c(-c4cc5cc(CN6CCC(CO)CC6)ccc5[nH]4)c3)cn2)cc1 [Example 39, 1-(4-Methyl-benzyl)-1H-pyrazole-4-carboxylic acid {5-[5-(4-hydroxymethyl-piperidin-1-ylmethyl)-1H-indol-2-yl]-6-oxo-1,6-dihydro-pyridin-3-yl}-amide] | < 100 |
| Cc1ccc(Cn2cc(C(=O)Nc3c[nH]c(=O)c(-c4cc5cc(CN6CCOCC6)ccc5[nH]4)c3)cn2)cc1 [Example 40, 1-(4-Methyl-benzyl)-1H-pyrazole-4-carboxylic acid [5-(5-morpholin-4-ylmethyl-1H-indol-2-yl)-6-oxo-1,6-dihydro-pyridin-3-yl]-amide] | < 100 |
| Cc1ccc(Cn2cc(C(=O)Nc3c[nH]c(=O)c(-c4cc5cc(CN6CCCC6)ccc5[nH]4)c3)cn2)cc1 [Example 41, 1-(4-Methyl-benzyl)-1H-pyrazole-4-carboxylic acid [6-oxo-5-(5-pyrrolidin-1-ylmethyl-1H-indol-2-yl)-1,6-dihydro-pyridin-3-yl]-amide] | < 100 |
| Cc1ccc(Cn2cc(C(=O)Nc3c[nH]c(=O)c(-c4cc5cc(CN6CC(O)C6)ccc5[nH]4)c3)cn2)cc1 [Example 42, 1-(4-Methyl-benzyl)-1H-pyrazole-4-carboxylic acid {5-[5-(3-hydroxy-azetidin-1-ylmethyl)-1H-indol-2-yl]-6-oxo-1,6-dihydro-pyridin-3-yl}-amide] | < 100 |
| Cc1ccc(Cn2cc(C(=O)Nc3c[nH]c(=O)c(-c4cc5cc(CN(C)CCO)ccc5[nH]4)c3)cn2)cc1 [Example 43, 1-(4-Methyl-benzyl)-1H-pyrazole-4-carboxylic acid [5-(5-{[(2-hydroxy-ethyl)-methyl-amino]-methyl}-1H-indol-2-yl)-6-oxo-1,6-dihydro-pyridin-3-yl]-amide] | < 100 |
| O=C(Nc1c[nH]c(=O)c(-c2cc3cc(CN4CCCCC4)ccc3[nH]2)c1)c1cnn(Cc2ccc(Cl)cc2)c1 [Example 44, 1-(4-Chloro-benzyl)-1H-pyrazole-4-carboxylic acid [6-oxo-5-(5-piperidin-1-ylmethyl-1H-indol-2-yl)-1,6-dihydro-pyridin-3-yl]-amide] | < 100 |
| CCN(CCO)Cc1ccc2[nH]c(-c3cc(NC(=O)c4cnn(Cc5ccc(Cl)cc5)c4)c[nH]c3=O)cc2c1 [Example 45, 1-(4-Chloro-benzyl)-1H-pyrazole-4-carboxylic acid [5-(5-{[ethyl-(2-hydroxy-ethyl)-amino]-methyl}-1H-indol-2-yl)-6-oxo-1,6-dihydro-pyridin-3-yl]-amide] | < 100 |
| O=C(Nc1c[nH]c(=O)c(-c2cc3cc(CNCCO)ccc3[nH]2)c1)c1cnn(Cc2ccc(Cl)cc2)c1 [Example 46, 1-(4-Chloro-benzyl)-1H-pyrazole-4-carboxylic acid (5-{5-[(2-hydroxy-ethylamino)-methyl]-1H-indol-2-yl}-6-oxo-1,6-dihydro-pyridin-3-yl)-amide] | < 100 |
| O=C(Nc1c[nH]c(=O)c(-c2cc3cc(CN4CCC(F)CC4)ccc3[nH]2)c1)c1cnn(Cc2ccc(Cl)cc2)c1 [Example 47, 1-(4-Chloro-benzyl)-1H-pyrazole-4-carboxylic acid {5-[5-(4-fluoro-piperidin-1-ylmethyl)-1H-indol-2-yl]-6-oxo-1,6-dihydro-pyridin-3-yl}-amide] | < 100 |
| O=C(Nc1c[nH]c(=O)c(-c2cc3cc(CN4CCC(O)CC4)ccc3[nH]2)c1)c1cnn(Cc2ccc(Cl)cc2)c1 [Example 48, 1-(4-Chloro-benzyl)-1H-pyrazole-4-carboxylic acid {5-[5-(4-hydroxy-piperidin-1-ylmethyl)-1H-indol-2-yl]-6-oxo-1,6-dihydro-pyridin-3-yl}-amide] | < 100 |
| O=C(Nc1c[nH]c(=O)c(-c2cc3cc(CN4CCCC4)ccc3[nH]2)c1)c1cnn(Cc2ccccc2)c1 [Example 50, 1-Benzyl-1H-pyrazole-4-carboxylic acid [6-oxo-5-(5-pyrrolidin-1-ylmethyl-1H-indol-2-yl)-1,6-dihydro-pyridin-3-yl]-amide] | < 100 |
| O=C(Nc1c[nH]c(=O)c(-c2cc3cc(CN4CCOCC4)ccc3[nH]2)c1)c1cnn(Cc2ccccc2)c1 [Example 51, 1-Benzyl-1H-pyrazole-4-carboxylic acid [5-(5-morpholin-4-ylmethyl-1H-indol-2-yl)-6-oxo-1,6-dihydro-pyridin-3-yl]-amide] | < 100 |
| CN1CCN(Cc2ccc3[nH]c(-c4cc(NC(=O)c5cnn(Cc6ccc(Cl)cc6)c5)c[nH]c4=O)cc3c2)CC1 [Example 53, 1-(4-Chloro-benzyl)-1H-pyrazole-4-carboxylic acid {5-[5-(4-methyl-piperazin-1-ylmethyl)-1H-indol-2-yl]-6-oxo-1,6-dihydro-pyridin-3-yl}-amide] | < 100 |
| Cc1ccc(Cn2cc(C(=O)Nc3c[nH]c(=O)c(-c4cc5cc(CNCCO)ccc5[nH]4)c3)cn2)cc1 [Example 54, 1-(4-Methyl-benzyl)-1H-pyrazole-4-carboxylic acid {5-[5-[(2-hydroxy-ethylamino)-methyl]-1H-indol-2-yl}-6-oxo-1,6-dihydro-pyridin-3-yl]-amide] | < 100 |
